ChEMBL document CHEMBL4665834 (J Med Chem, 2020)
≈ marks a conversion by molar mass, not a printed value.

What was measured:
[1] = Solubility of compound in phosphate buffer at pH 8 using crystalline form of sample; format: physicochemical
[2] = Solubility of compound in water using crystalline form of sample; format: physicochemical
[3] = biological target: Cytochrome P450 2D6 (Homo sapiens, UniProt P10635); test: Inhibition of CYP2D6 in human liver microsomes using dextromethorphan as substrate incubated for 15 mins in presence of NADPH generating system by LC-MS/MS analysis; format: ADME
[4] = biological target: Cytochrome P450 2C9 (Homo sapiens, UniProt P11712); test: Inhibition of CYP2C9 in human liver microsomes using diclofenac as substrate incubated for 15 mins in presence of NADPH generating system by LC-MS/MS analysis; format: ADME
[5] = biological target: Cytochrome P450 1A2 (Homo sapiens, UniProt P05177); test: Inhibition of CYP1A2 in human liver microsomes using phenacetin as substrate incubated for 15 mins in presence of NADPH generating system by LC-MS/MS analysis; format: ADME
[6] = Clearance in Wistar rat at 0.3 to 1 mg/kg, iv administered as bolus dose or 15 mins infusion by LC-MS/MS analysis; format: ADME, organism-based; settings: Wistar, in vivo, dose 0.3-1 mg/kg
[7] = biological target: Prostaglandin E2 receptor EP4 subtype (Homo sapiens, UniProt P35408); test: Displacement of [3H]prostaglandin E2 from full-length recombinant human EP4 receptor expressed in HEK293 cell membranes measured after 120 mins by scintillation counting method
[8] = Protein binding in pooled dog plasma assessed as unbound fraction incubated for 6 hrs by LC-MS/MS analysis based equilibrium dialysis method; format: ADME, cell-free, Canis lupus familiaris
[9] = Maximum oral bioavailability in human hepatocytes based well stirred liver model at 1 uM measured after 2 to 90 mins by LC-MS/MS analysis; format: ADME, Hepatocyte; settings: time 2-90 min, read-out: Fmax
[10] = Drug metabolism in rat hepatocytes assessed as formation of hydroxylated and ring-opened pyrrolidine derivative at 1 uM measured after 1 to 4 hrs by LC-MS/MS analysis; format: ADME, cell-based, Hepatocyte; settings: time 1-4 hrs
[11] = Terminal half life in Balb/c mouse at 1 mg/kg, iv administered as bolus dose by LC-MS/MS analysis; format: ADME, organism-based; settings: in vivo, read-out: beta t1/2 (converted)
[12] = Toxicity in Beagle dog up to 1 g/kg/day, po administered for 14 days; format: organism-based, Canis lupus familiaris; settings: in vivo, 1000 mg/kg, 336 h, time 14 day

Sequence of Cytochrome P450 2C9 (P11712 whole entry): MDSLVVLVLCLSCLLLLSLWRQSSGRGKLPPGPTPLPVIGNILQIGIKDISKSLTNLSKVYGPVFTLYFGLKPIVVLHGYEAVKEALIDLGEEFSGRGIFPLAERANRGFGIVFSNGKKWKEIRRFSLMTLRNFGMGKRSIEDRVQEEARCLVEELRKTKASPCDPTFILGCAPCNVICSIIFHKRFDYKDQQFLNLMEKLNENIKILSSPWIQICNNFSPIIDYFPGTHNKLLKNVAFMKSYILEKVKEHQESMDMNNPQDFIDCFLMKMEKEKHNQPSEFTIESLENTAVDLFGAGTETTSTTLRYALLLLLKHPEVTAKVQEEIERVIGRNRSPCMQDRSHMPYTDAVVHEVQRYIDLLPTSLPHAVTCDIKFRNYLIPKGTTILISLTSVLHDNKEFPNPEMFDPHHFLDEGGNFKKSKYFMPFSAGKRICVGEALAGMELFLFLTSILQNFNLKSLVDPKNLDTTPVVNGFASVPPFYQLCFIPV
Sequence of Prostaglandin E2 receptor EP4 subtype (P35408 whole entry): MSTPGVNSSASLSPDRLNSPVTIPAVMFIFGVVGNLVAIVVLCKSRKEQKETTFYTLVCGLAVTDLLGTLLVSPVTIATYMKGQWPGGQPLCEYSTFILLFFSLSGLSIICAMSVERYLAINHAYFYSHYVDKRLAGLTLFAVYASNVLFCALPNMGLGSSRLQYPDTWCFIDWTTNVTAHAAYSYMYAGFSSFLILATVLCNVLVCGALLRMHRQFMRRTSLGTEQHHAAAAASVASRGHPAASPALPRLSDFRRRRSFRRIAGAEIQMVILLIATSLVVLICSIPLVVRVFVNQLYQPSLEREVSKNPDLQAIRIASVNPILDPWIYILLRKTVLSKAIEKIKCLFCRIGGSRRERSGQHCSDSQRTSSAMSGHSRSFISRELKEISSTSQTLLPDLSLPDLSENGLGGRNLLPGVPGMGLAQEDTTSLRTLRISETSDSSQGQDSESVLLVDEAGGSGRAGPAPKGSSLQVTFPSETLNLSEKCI
Sequence of Cytochrome P450 1A2 (P05177 whole entry, the tested form may be a part): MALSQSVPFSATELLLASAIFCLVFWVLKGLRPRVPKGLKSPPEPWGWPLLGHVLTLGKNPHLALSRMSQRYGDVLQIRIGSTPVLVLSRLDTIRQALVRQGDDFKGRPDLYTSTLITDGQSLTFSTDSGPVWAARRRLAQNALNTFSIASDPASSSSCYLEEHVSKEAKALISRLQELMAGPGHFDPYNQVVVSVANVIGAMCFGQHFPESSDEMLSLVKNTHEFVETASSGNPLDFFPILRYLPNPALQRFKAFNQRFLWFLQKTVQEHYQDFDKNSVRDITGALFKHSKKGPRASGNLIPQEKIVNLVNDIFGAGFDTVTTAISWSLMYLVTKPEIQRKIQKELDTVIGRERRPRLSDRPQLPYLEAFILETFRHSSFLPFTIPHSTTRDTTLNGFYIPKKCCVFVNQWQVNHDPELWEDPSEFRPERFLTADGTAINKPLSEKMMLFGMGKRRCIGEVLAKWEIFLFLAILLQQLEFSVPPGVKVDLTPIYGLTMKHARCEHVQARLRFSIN
Sequence of Cytochrome P450 2D6 (P10635 whole entry): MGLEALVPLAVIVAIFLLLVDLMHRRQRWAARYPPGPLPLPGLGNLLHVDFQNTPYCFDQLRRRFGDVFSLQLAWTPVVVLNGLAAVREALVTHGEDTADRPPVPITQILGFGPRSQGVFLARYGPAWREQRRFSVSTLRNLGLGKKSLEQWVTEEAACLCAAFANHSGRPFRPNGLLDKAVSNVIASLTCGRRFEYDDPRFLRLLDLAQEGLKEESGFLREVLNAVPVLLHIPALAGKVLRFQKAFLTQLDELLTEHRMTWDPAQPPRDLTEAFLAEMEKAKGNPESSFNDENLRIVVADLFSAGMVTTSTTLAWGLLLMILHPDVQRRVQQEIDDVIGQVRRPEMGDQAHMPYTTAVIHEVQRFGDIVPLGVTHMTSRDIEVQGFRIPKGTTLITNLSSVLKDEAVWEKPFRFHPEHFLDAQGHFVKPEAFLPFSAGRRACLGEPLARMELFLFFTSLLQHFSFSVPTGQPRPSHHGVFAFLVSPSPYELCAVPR

Work on `Cc1c(N2CCCC2)nc2ccc(Br)cc2c1C(=O)NC[C@H](CCC(=O)O)c1ccccc1Cl` [BAY-6672] yielded a solubility thermodynamic [1] of 290 µg/mL (≈ 532 µM), a solubility [2] of under 1 µg/mL and an IC50 [3] of over 20 µM. It also gave an IC50 [4] of over 20 µM, an IC50 [5] of over 20 µM and a clearance [6] of 11.7 mL/min/kg. For the same molecule, the IC50 [7] was over 9.4 µM, the fraction unbound at 6 h [8] was under 0.01 and the Fh at 1 µM [9] was 66%. For the same molecule, the Drug metabolism [10] was “Metabolite_Detected”, the half-life [11] was 3.4 h and the Activity [12] was “Non-Toxic”.
